{"source": "patent US20120021988A1", "about": "“METHODS FOR TREATING IMMUNE THROMBOCYTOPENIA” (priority 2007, published 2012)", "key": {"FcγIIa (His 131 allele)": {"system": "FcγIIa (His 131 allele)", "test": "Repeated FcγR reverse ELISA with SEQ ID NO:20 (Table 3)", "assay_type": "binding", "conditions": "H131 allele", "experimental": "(§1) Experiments with SEQ ID NO:20 were repeated. Costar microtiter plates were coated with 1:10 dilutions of highly purified FcγIIa (His 131 allele aka […]), FcγIIb and FcγIIIb and incubated for 24 hours. The plates were washed and then blocked with 10 mg/ml BSA blocking solution for 24 hours. PAP immune complexes were formed as described in Example 2. PAP (100 μl) were pre-incubated with 100 μl of peptide for one hour. PAP/peptide mixtures were added to the FcγR coated plates and incubated for one hour. After washing, plates were incubated with ABTS substrate for 15 minutes and read at 405 nm."}, "FCγIIIb (NA2)": {"system": "FCγIIIb (NA2)", "test": "Repeated FcγR reverse ELISA with SEQ ID NO:20 (Table 3)", "assay_type": "binding", "experimental": "as §1"}, "FCγIIb/c": {"system": "FCγIIb/c", "test": "Repeated FcγR reverse ELISA with SEQ ID NO:20 (Table 3)", "assay_type": "binding", "experimental": "as §1"}, "human C1q": {"system": "human C1q", "test": "Reverse ELISA: inhibition of PAP immune complex binding to C1q coated plates", "description": "(§2) For this reason, a “reverse ELISA” technique has been used to assess binding of the Fc region to ligands that bind to immune complexed IgG Fc. In a reverse ELISA, the enzyme (e.g., HRP) is not covalently conjugated to the Fc portion of the secondary antibody. Rather, a preformed immune complex of peroxidase-rabbit (or mouse) anti-peroxidase IgG (“PAP” complex) is used. […] In the reverse ELISA system, an Fc CH2-CH3 cleft binding ligand (e.g., purified human C1q) was bound to microwell plates. In the absence of competitor, PAP complexes bound to the immobilized ligand and the reaction between HRP and its substrate produces a signal. This signal was reduced by polypeptides and compounds that inhibited PAP binding to the immobilized ligand.\nPAP complexes were formed mixing 2 μl of rabbit anti-peroxidase (Sigma Chemicals, St. Louis, Mo.; Cat. No. P7899) with 50 μl of peroxidase (Sigma-Aldrich, Cat. No. P6782) in 1 ml distilled water. PAP (100 μl) were pre-incubated with 100 μl of peptide for one hour, 100 μl were pre-incubated with 100 μl of peptide or human C1q (Quidel Corp., San Diego, Calif.) for one hour. The C1q/PAP and peptide/PAP mixtures (100 μl) were incubated with C1q coated plates for 30 minutes. After washing, plates were incubated with ATBS (Quidel Corp.) for 15 minutes and read at 405 nm."}, "FcγIIIa": {"system": "FcγIIIa", "test": "FcγR reverse ELISA: inhibition of PAP immune complex binding (Table 2)", "conditions": "PAP/peptide mixture on FcγR coated plates; positive control 1.588", "description": "as §2\n(§3) Once the reverse ELISA protocol was established using the C1q assay, the assay was redesigned using FcγIIa, FcγIIb and FcγIII in place of C1q. Highly purified FcγIIa, FcγIIb and FcγIII (R&D Systems, Minneapolis, Minn.) were immunoadsorbed onto plastic microwells. After optimizing the FcγR reverse ELISA system, simple competitive inhibition experiments using polypeptides provided herein were conducted to investigate their ability to inhibit binding of immune complexes to purified FcγR.\n(§4) Falcon microtiter plates were coated with 1:10 dilutions of highly purified FcγIIa, FcγIIb and FcγIII and incubated for 24 hours. The plates were washed and then blocked with 5×BSA blocking solution (Alpha Diagnostic International, San Antonio, Tex.) for 24 hours. PAP immune complexes were formed as described in Example 1. PAP (100 μl) were pre-incubated with 100 μl of peptide for one hour. PAP/peptide mixtures were added to the FcγR coated plates and incubated for one hour. After washing, plates were incubated with ABTS substrate (Quidel Corp.) for 15 minutes and read at 405 nm."}, "FcγIIb": {"system": "FcγIIb", "test": "FcγR reverse ELISA: inhibition of PAP immune complex binding (Table 2)", "conditions": "PAP/peptide mixture on FcγR coated plates; positive control 1.394", "description": "as §2, §3, §4"}, "FcγIIa (R131 allele)": {"system": "FcγIIa (R131 allele)", "test": "FcγR reverse ELISA: inhibition of PAP immune complex binding (Table 2)", "conditions": "PAP/peptide mixture on FcγR coated plates; positive control 1.599", "description": "as §2, §3, §4"}, "Fcγ1": {"system": "Fcγ1", "test": "Repeated FcγR reverse ELISA with SEQ ID NO:20 (Table 3)", "assay_type": "binding"}}, "data": [{"substance": "Ala-Pro-Pro-Asp-Cys-Ala-Trp-His-Leu-Gly-Glu-Leu-Val-Trp-Cys-Thr (APPDCAWHLGELVWCT) [SEQ ID NO:20]", "values": [{"measurement": "FCγIIa* (read at 405 nm)", "setting": "FcγIIa (His 131 allele); repeat experiment, positive control 3.509", "result": 0.209}, {"measurement": "% inhibition of IC binding, FCγIIa*", "setting": "FcγIIa (His 131 allele); versus positive control", "result": 94, "unit": "%"}, {"measurement": "FCγIIIb (NA2) (read at 405 nm)", "setting": "FCγIIIb (NA2); repeat experiment, positive control 3.060", "result": 0.266}, {"measurement": "% inhibition of IC binding, FCγIIIb (NA2)", "setting": "FCγIIIb (NA2); versus positive control", "result": 91, "unit": "%"}, {"measurement": "FCγIIb/c (read at 405 nm)", "setting": "FCγIIb/c; repeat experiment, positive control 2.218", "result": 0.266}, {"measurement": "% inhibition of IC binding, FCγIIb/c", "setting": "FCγIIb/c; versus positive control", "result": 88, "unit": "%"}, {"measurement": "OD 405 nm", "setting": "human C1q; PAP pre-incubated with peptide or C1q one hour, C1q coated plates, lower OD = more inhibition, positive control 2.355", "result": 0.389}, {"measurement": "Inhibition of C1q binding (ranking in words)", "setting": "human C1q; summary of Table 1", "result": "greatest inhibition of C1q binding"}, {"measurement": "OD405 FcγIIIa", "setting": "FcγIIIa", "result": 0.670}, {"measurement": "OD405 FcγIIb", "setting": "FcγIIb", "result": 0.496}, {"measurement": "OD405 FcγIIa (R131 allele)", "setting": "FcγIIa (R131 allele)", "result": 0.509}, {"measurement": "Fcγ1 (read at 405 nm)", "setting": "Fcγ1; repeat experiment, positive control 2.333", "result": 0.264}, {"measurement": "% inhibition of IC binding, Fcγ1", "setting": "Fcγ1; versus positive control", "result": 89, "unit": "%"}]}]}
